# Source: patent publication US20240148821A1, “PHARMACEUTICAL USE OF CYCLIC PEPTIDE COMPOUND” (CHUGAI SEIYAKU KABUSHIKI KAISHA, priority 2021, published 2024)
# Numbered stars: 1 amine (or outer) side, 2 acyl side, 3 side chain; on linkers, the order of the positions; unused ones are H or OH. Bridge positions count the residues as written; N and C are the ends. Square brackets hold non-standard residues; d marks the D form. Peptide text beside a SMILES is read from it. * marks the point of attachment. NMeAbu(3,3-F2-piperidino) = CN[C@@H](CCN1CCCC(F)(F)C1)C(=O)O; hPhe(3-Cl-4-CF3) = N[C@@H](CCc1ccc(C(F)(F)F)c(Cl)c1)C(=O)O; hPhe(3-F,4-CF3) = N[C@@H](CCc1ccc(C(F)(F)F)c(F)c1)C(=O)O; hPhe(4-CF3) = N[C@@H](CCc1ccc(C(F)(F)F)cc1)C(=O)O; NMePhe(4-Cl) = CN[C@@H](Cc1ccc(Cl)cc1)C(=O)O; NMePhe(4-Me) = CN[C@@H](Cc1ccc(C)cc1)C(=O)O; NMeNle(6-CHF2) = CN[C@@H](CCCCC(F)F)C(=O)O; X77 = O=C(CN(CCN1CCC(F)(F)CC1)[*:1])[*:2]; Phe(3-I) = N[C@@H](Cc1cccc(I)c1)C(=O)O; dαMeGly(allyl) = C=CC[C@@](C)(N)C(=O)O; Phe(2-F) = N[C@@H](Cc1ccccc1F)C(=O)O; NMe4Pal = CN[C@@H](Cc1ccncc1)C(=O)O; NMeY = CN[C@@H](Cc1ccc(O)cc1)C(=O)O; NMeCha = CN[C@@H](CC1CCCCC1)C(=O)O; NMeChg = CN[C@H](C(=O)O)C1CCCCC1; NMeD = CN[C@@H](CC(=O)O)C(=O)O; NMeL = CN[C@@H](CC(C)C)C(=O)O; NMeV = CN[C@H](C(=O)O)C(C)C; d(β3hA) = C[C@@H](N)CC(=O)O; NMeS = CN[C@@H](CO)C(=O)O; Pip = O=C(O)[C@@H]1CCCCN1; NMeA = CN[C@@H](C)C(=O)O; NMeAib = CNC(C)(C)C(=O)O; Nle = CCCC[C@H](N)C(=O)O; Piperidide = C1CCN(*)CC1; Ac5c = NC1(C(=O)O)CCCC1; Aze = O=C(O)[C@@H]1CCN1; Aib = CC(C)(N)C(=O)O; Sar = CNCC(=O)O
# System: Human pancreatic cancer cell line AsPC-1 (G12D mutation Kras)
# Experiment: AsPC-1 cell growth inhibition (AsPC-1 CGI)
# Format: cell-based
# Settings: read-out: AsPC-1 cell growth inhibition, 50% growth inhibitory concentration (IC50 value); 96 hours, CellTiter-Glo, values classified in ranges
# Protocol: Test compounds were serially dilated with dimethyl sulfoxide, and 200 nL was then dispensed to a U-bottom 96-well plate using Labcyte Echo. […] The cell suspension was dispensed to a. plate containing a test compound at 100 μL per well and incubated at 37° C. in a 5% carbon dioxide gas incubator. 96 hours later, 80 μL of CellTiter-Glo (Promega) was added to each well and fluorescence was measured.
row,SMILES,IC50 [nM]
1,CC[C@H](C)[C@@H]1NC(=O)[C@H](CC(C)C)N(C)C(=O)C[C@@H](C)NC(=O)[C@H](C(C)C)N(C)C(=O)C2(CCCC2)NC(=O)[C@@H]2CCCN2C(=O)[C@H](CCc2ccc(C(F)(F)F)c(Cl)c2)NC(=O)CN(C)C(=O)[C@H](CC2CCCCC2)N(C)C(=O)CN(C)C(=O)CN(CCN2CCC(F)(F)CC2)C1=O [Compound 635] (cyclo([Ac5c][NMeV][d(β3hA)][NMeL]I[X77][Sar][NMeCha][Sar][hPhe(3-Cl-4-CF3)]P)),> 500
2,CC[C@H](C)[C@@H]1NC(=O)[C@H](COC)N(C)C(=O)C[C@@H](C(=O)N2CCCCC2)N(C)C(=O)[C@H](C(C)C)N(C)C(=O)C2(CCCC2)NC(=O)[C@@H]2CCCN2C(=O)[C@H](CCc2ccc(C(F)(F)F)c(Cl)c2)NC(=O)CN(C)C(=O)[C@H](CC2CCCCC2)N(C)C(=O)[C@@H]2CCN2C(=O)[C@H](C)N(C)C1=O [Compound 636] ([NMeS](Me)I[NMeA][Aze][NMeCha][Sar][hPhe(3-Cl-4-CF3)]P[Ac5c][NMeV][NMeD]-Piperidide; lactam N-11),> 500
3,CC[C@H](C)[C@@H]1NC(=O)[C@H](CC(C)C)N(C)C(=O)C[C@@H](C(=O)N2CCCCC2)N(C)C(=O)[C@H](CC(C)C)NC(=O)C(C)(C)N(C)C(=O)[C@H](Cc2ccccc2F)NC(=O)[C@H](Cc2cccc(I)c2)NC(=O)CN(C)C(=O)[C@H](Cc2ccc(C)cc2)N(C)C(=O)[C@@H]2CCN2C(=O)CN(C)C1=O [Compound 638] ([NMeL]I[Sar][Aze][NMePhe(4-Me)][Sar][Phe(3-I)][Phe(2-F)][NMeAib]L[NMeD]-Piperidide; lactam N-11),> 500
4,CC[C@H](C)[C@@H]1NC(=O)[C@H](CC(C)C)N(C)C(=O)C[C@@H](C)NC(=O)[C@H](C(C)C)N(C)C(=O)C(C)(C)NC(=O)[C@@H]2CCCN2C(=O)[C@H](CCc2ccc(C(F)(F)F)c(Cl)c2)NC(=O)CN(C)C(=O)[C@H](CC2CCCCC2)N(C)C(=O)CN(C)C(=O)CN(C)C1=O [Compound 641] (cyclo([Aib][NMeV][d(β3hA)][NMeL]I[Sar][Sar][NMeCha][Sar][hPhe(3-Cl-4-CF3)]P)),> 500
5,CC[C@H](C)[C@@H]1NC(=O)[C@H](C(C)C)N(C)C(=O)C[C@@H](C)NC(=O)[C@H](CC(C)C)N(C)C(=O)C2(CCCC2)NC(=O)[C@H](CC(C)C)N(C)C(=O)[C@H](CCc2ccc(C(F)(F)F)cc2)NC(=O)CN(C)C(=O)[C@H](Cc2ccc(Cl)cc2)N(C)C(=O)[C@@H]2CCN2C(=O)CN(C)C1=O [Compound 645] (cyclo([Ac5c][NMeL][d(β3hA)][NMeV]I[Sar][Aze][NMePhe(4-Cl)][Sar][hPhe(4-CF3)][NMeL])),> 500
6,CC[C@H](C)[C@@H]1NC(=O)[C@H](CC(C)C)N(C)C(=O)C[C@@H](C(=O)N2CCCCC2)N(C)C(=O)[C@H](CCCCC(F)F)N(C)C(=O)C2(CCCC2)NC(=O)[C@@H]2CCCN2C(=O)[C@H](CCc2ccc(C(F)(F)F)c(Cl)c2)NC(=O)CN(C)C(=O)[C@H](CC2CCCCC2)N(C)C(=O)CN(C)C(=O)CN(C)C1=O [Compound 653] ([NMeL]I[Sar][Sar][NMeCha][Sar][hPhe(3-Cl-4-CF3)]P[Ac5c][NMeNle(6-CHF2)][NMeD]-Piperidide; lactam N-11),> 500
7,CC[C@H](C)[C@@H]1NC(=O)[C@H](CC(C)C)N(C)C(=O)C[C@@H](C(=O)N2CCCCC2)N(C)C(=O)[C@H](C2CCCCC2)N(C)C(=O)C2(CCCC2)NC(=O)[C@H](Cc2ccncc2)N(C)C(=O)[C@H](CCc2ccc(C(F)(F)F)c(Cl)c2)NC(=O)CN(C)C(=O)[C@H](CC2CCCCC2)N(C)C(=O)[C@@H]2CCN2C(=O)[C@H](C)N(C)C1=O [Compound 656] ([NMeL]I[NMeA][Aze][NMeCha][Sar][hPhe(3-Cl-4-CF3)][NMe4Pal][Ac5c][NMeChg][NMeD]-Piperidide; lactam N-11),> 500
8,CC[C@H](C)[C@@H]1NC(=O)[C@H](C)N(C)C(=O)C[C@@H](C)NC(=O)[C@H](CC(C)C)N(C)C(=O)C(C)(C)NC(=O)[C@@H]2CCCN2C(=O)[C@H](CCc2ccc(C(F)(F)F)cc2)NC(=O)CN(C)C(=O)[C@H](Cc2ccc(Cl)cc2)N(C)C(=O)CN(C)C(=O)CN(C)C1=O [Compound 664] (cyclo([Aib][NMeL][d(β3hA)][NMeA]I[Sar][Sar][NMePhe(4-Cl)][Sar][hPhe(4-CF3)]P)),> 500
9,C=CC[C@@]1(C)NC(=O)[C@@H]2CCCN2C(=O)[C@H](CCc2ccc(C(F)(F)F)c(Cl)c2)NC(=O)CN(C)C(=O)[C@H](CC2CCCCC2)N(C)C(=O)CN(C)C(=O)CN(C)C(=O)[C@H]([C@@H](C)CC)NC(=O)[C@H](CC(C)C)N(C)C(=O)C[C@@H](C)NC(=O)[C@H](C(C)C)N(C)C1=O [Compound 665] (cyclo(I[Sar][Sar][NMeCha][Sar][hPhe(3-Cl-4-CF3)]P[dαMeGly(allyl)][NMeV][d(β3hA)][NMeL])),> 500
10,CC[C@H](C)[C@@H]1NC(=O)[C@H](C)N(C)C(=O)C[C@@H](C)NC(=O)[C@H](C(C)C)N(C)C(=O)C2(CCCC2)NC(=O)[C@@H]2CCCN2C(=O)[C@H](CCc2ccc(C(F)(F)F)c(Cl)c2)NC(=O)[C@H]2CCCN2C(=O)[C@H](CC2CCCCC2)N(C)C(=O)[C@@H]2CCCN2C(=O)CN(C)C1=O [Compound 666] (cyclo([Ac5c][NMeV][d(β3hA)][NMeA]I[Sar]P[NMeCha][dP][hPhe(3-Cl-4-CF3)]P)),> 500
11,"CC[C@H](C)[C@@H]1NC(=O)[C@@H]2CCCCN2C(=O)C[C@@H](C(=O)N2CCCCC2)N(C)C(=O)[C@H](C(C)C)N(C)C(=O)C2(CCCC2)NC(=O)[C@@H]2CCCN2C(=O)[C@H](CCc2ccc(C(F)(F)F)c(F)c2)NC(=O)CN(C)C(=O)[C@H](CC2CCCCC2)N(C)C(=O)CN(C)C(=O)CN(C)C1=O [Compound 670] ([Pip]I[Sar][Sar][NMeCha][Sar][hPhe(3-F,4-CF3)]P[Ac5c][NMeV][NMeD]-Piperidide; lactam N-11)",> 500
12,CCCC[C@@H]1NC(=O)[C@H](Cc2ccccc2F)NC(=O)CN(C)C(=O)[C@H](Cc2ccc(OC)cc2)N(C)C(=O)CN(C)C(=O)CN(C)C(=O)[C@H]([C@@H](C)CC)NC(=O)[C@H](CC(C)C)N(C)C(=O)C[C@@H](C(=O)N2CCCCC2)N(C)C(=O)[C@H](CC(C)C)NC(=O)[C@H](Cc2ccc(OC)cc2)N(C)C1=O [Compound 681] ([NMeL]I[Sar][Sar][NMeY](Me)[Sar][Phe(2-F)][Nle][NMeY](Me)L[NMeD]-Piperidide; lactam N-11),> 500
13,"CC[C@H](C)[C@@H]1NC(=O)[C@H](C)N(C)C(=O)C[C@@H](C(=O)N2CCCCC2)N(C)C(=O)[C@H](C(C)C)N(C)C(=O)C2(CCCC2)NC(=O)[C@H](CCN2CCCC(F)(F)C2)N(C)C(=O)[C@H](CCc2ccc(C(F)(F)F)c(Cl)c2)NC(=O)CN(C)C(=O)[C@H](CC2CCCCC2)N(C)C(=O)[C@@H]2CCN2C(=O)[C@H](C)N(C)C1=O [Compound 682] ([NMeA]I[NMeA][Aze][NMeCha][Sar][hPhe(3-Cl-4-CF3)][NMeAbu(3,3-F2-piperidino)][Ac5c][NMeV][NMeD]-Piperidide; lactam N-11)",> 500
14,CC[C@H](C)[C@@H]1NC(=O)[C@H](CC(C)C)N(C)C(=O)C[C@@H](C(=O)N2CCCCC2)N(C)C(=O)[C@H](C2CCCCC2)N(C)C(=O)C2(CCCC2)NC(=O)[C@H](CC(=O)O)N(C)C(=O)[C@H](CCc2ccc(C(F)(F)F)c(Cl)c2)NC(=O)CN(C)C(=O)[C@H](CC2CCCCC2)N(C)C(=O)CN(C)C(=O)CN(C)C1=O [Compound 688] ([NMeL]I[Sar][Sar][NMeCha][Sar][hPhe(3-Cl-4-CF3)][NMeD][Ac5c][NMeChg][NMeD]-Piperidide; lactam N-11),> 500
